Where two headings read alike, the source gives them in different places.
Assays:
Isoelectric focusing = format: physicochemical; conditions: doubly purified material
From the text: For the purpose of obtaining electrophoretic and amino acid analysis the anthopleurin-A obtained in Example 1 was rechromatographed on CM Sephadex C-25, Sephadex G-50 and G-10 according to the process set forth in Example 1, Steps c, d and e, respectively. The doubly purified material was subject to electrophoretic analysis using commercially available pre-cast 12% acrylamide gels and matched buffer systems obtained from Bio.Rad Laboratories, 32nd and Griffin, Richmond, California.
Isoelectric focusing gives the isoelectric point at a pH = 8.2. Disc gel electrophoresis with 12% polyacrylamide gel at pH 3.6 gave an Rf value of 0.46 versus methyl green tracking dye. […] Sodium dodecyl sulfate (SDS) disc gel electrophoresis using a 10% gel indicated a m.w. of about 4,700 after incubation with dithioerythritol, using RNase A and pancreatic trypsin inhibitor (PTI) for comparison. The molecular weight is so low that these values are only approximate. AP-A was determined to be a peptide on the basis of positive ninhydrin spots obtained when a hydrolysate of AP-A was chromatographed.

monoamine oxidase = assay: Enzyme inhibition, monoamine oxidase; format: biochemical; conditions: 3 × 10^-8 M
in situ heart [1] = assay: Cardiotonic effect in the in situ heart, dog; format: in vivo
From the text: (§1) This cardiac stimulation is observed in animals by measuring the in vitro contractile effect on isolated heart muscle and in vivo in anesthetized dogs fitted with a cardiac strain gauge.

Solubility in water = format: physicochemical; conditions: deionized water
[2] = tested on: catechol-O-methyltransferase; assay: Enzyme inhibition, catechol-O-methyltransferase; format: biochemical; conditions: 3 × 10^-8 M
isolated heart [3] = assay: Cardiotonic effect in the isolated heart, rat; format: cell-based
From the text: as §1

isolated heart [4] = assay: Cardiotonic effect in the isolated heart, guinea pig; format: cell-based
From the text: as §1

isolated vascular muscle = assay: Mechanical effect on the isolated vascular muscle; format: cell-based
isolated heart [5] = assay: Cardiotonic effect in the isolated heart, rabbit; format: cell-based
From the text: as §1

blood pressure = assay: Effect on blood pressure; conditions: in vivo
[6] = tested on: isolated guinea pig atria; assay: Positive inotropic effect on isolated guinea pig atria; format: cell-based
Protocol: (§2) Anthopleurin-A can be further characterized by its pharmacological characteristics. […] The LD50 in mice (i.p.) is about 0.2-0.3 mg./kg.

[7] = tested on: cyclic 3', 5'-nucleotide phosphodiesterase; assay: Enzyme inhibition, cyclic 3', 5'-nucleotide phosphodiesterase; format: biochemical; conditions: 3 × 10^-8 M
isolated heart [8] = assay: Cardiotonic effect in the isolated heart, dog; format: cell-based
From the text: as §1

isolated heart [9] = assay: Cardiotonic effect in the isolated heart, cat; format: cell-based
From the text: as §1

atria = assay: Inotropic effect on atria under stressful conditions; format: cell-based; conditions: severe temperature stress, anoxia and low Ca^++ concentrations
in situ heart [10] = assay: Cardiotonic effect in the in situ heart, cat; format: in vivo
heart rate = assay: Chronotropic effect (heart rate)
[11] = Stability of anthopleurin-A on storage and in solution; format: physicochemical
[12] = Dependence of drug action and toxicity on external Ca++ and K+, compared with ouabain
Na, K-ATPase = assay: Enzyme inhibition, Na, K-ATPase; format: biochemical; conditions: 3 × 10^-8 M
mice = assay: Acute toxicity (LD50) in mice, i.p.; format: in vivo
Protocol: as §2

anthopleurin-A
isoelectric point (Isoelectric focusing): 8.2 pH
inhibition of monoamine oxidase (monoamine oxidase): none of the following enzymes is inhibited
cardiotonic effect in the in situ heart (in situ heart [1]): effective cardiotonic agent
solubility (Solubility in water): very soluble
inhibition of catechol-O-methyltransferase [2]: none of the following enzymes is inhibited
cardiotonic effect in the isolated heart (isolated heart [3]): effective cardiotonic agent
cardiotonic effect in the isolated heart (isolated heart [4]): effective cardiotonic agent
mechanical effect on the isolated vascular muscle / vascular smooth muscle (isolated vascular muscle): no demonostrable mechanical effect
mechanical effect on the isolated vascular muscle / vascular smooth muscle (isolated vascular muscle; listed as AP-A): does not have any demonstrable effect
cardiotonic effect in the isolated heart (isolated heart [5]): effective cardiotonic agent
effect on blood pressure (blood pressure): negligible effect
effect on blood pressure (blood pressure; listed as AP-A): does not have any demonstrable effect
ED50, positive inotropic effect ([6]; isolated guinea pig atria): 1.1 nM
potency relative to ouabain in positive inotropic effect ([6]; times as potent as ouabain): 200-1000 x
inhibition of cyclic 3', 5'-nucleotide phosphodiesterase [7]: none of the following enzymes is inhibited
cardiotonic effect in the isolated heart (isolated heart [8]): effective cardiotonic agent
cardiotonic effect in the isolated heart (isolated heart [9]): effective cardiotonic agent
inotropic effect on atria under stress (atria): positive inotropic effect
cardiotonic effect in the in situ heart (in situ heart [10]): effective cardiotonic agent
chronotropic effect / effect on heart rate (heart rate): does not show any chronotropic effect
chronotropic effect / effect on heart rate (heart rate; listed as AP-A): does not have any demonstrable effect
time stable in solution ([11]; as fraction G, 20.5° C., 10^-7 M solutions, pH 4.55-7.80): at least 24 hours
loss of cardiotonic activity ([11]; as fraction G, pH above 11): about 90%
storage stability ([11]; kept at -20° C. for a year as lyophilized fraction C or lyophilized fraction G): no signs of deterioration
stability versus pH ([11]; neutral and lower pH values): relatively stable
effect of lowered external K^+ on drug toxicity [12]: does not alter drug toxicity
sensitivity to Ca^++ concentration [12]: not nearly as sensitive
inhibition of Na, K-ATPase (Na, K-ATPase): none of the following enzymes is inhibited
LD50 (mice): 0.2 to 0.3 mg/kg

Source: patent US4059694A, “Cardiotonic agent” (The University of Hawaii, priority 1976, dated 1977)
